Source: patent publication US9688638B2, “Opioid agonists and uses thereof” (priority 2013, dated 2017)
Read-outs that look alike come from different tables or passages of the source.

How the values were obtained:
[1] = target: KOR (Homo sapiens (Human), UniProt P41145); assay: cAMP accumulation assay, forskolin-stimulated CHO-K1 cells stably expressing KOR; type: cell-based
Method: (§1) Inhibition of cAMP accumulation by select compounds was measured in forskolin-stimulated CHO-K1 cells stably expressing KOR. CHO-K1 cells stably expressing KOR were harvested using Invitrogen Cell Dissociation Buffer, and then centrifuged at 1200 rpm for five minutes. The supernatant was aspirated and cells were resuspended in assay buffer to a density of 4×10^5 cells/mL. 25 μL of cells were added into a white half-area 96 well plate. Fourteen point serial dilutions of test compounds were carried out in assay buffer (PBS with 0.5 mM IBMX). Ketazocine was used as a positive control for each assay. 12.5 μL of compound was added to the cells in duplicate for each test concentration. The cells were then stimulated with 12.5 μL forskolin at a final concentration 20 μM. Cells were incubated for 45 minutes in a 37° C., 5% CO2 water jacketed incubator. CisBio HTRF cAMP assay reagent was used for cAMP quantitation. Two hours after substrate addition, signal at 665/615 nm was measured using the Perkin Elmer Victor X4 HTRF reader. Data analysis was done using GraphPad Prism, sigmoidal dose-response (variable slope) curve fitting.

[2] = target: recombinant human kappa (KOR) opioid receptor (Homo sapiens (Human), UniProt P41145); assay: biochemical; type: binding
[3] = test system: Swiss Albino or CD-1 male mice; assay: Acetic acid writhing (AAW) analgesic assay; type: in vivo
Method: Approaches for evaluating analgesic activity of a compound of the present invention in vivo include a “writhing test.” Briefly, the compound to be tested is administered [by, for example, injection (e.g., subcutaneous injection)] to the mouse. Thereafter, a 0.5% acetic acid solution is administered (i.p.) to a mouse and the numbers of writhing responses are counted for twenty minutes. Antinociception is quantified as reduction in the number of writhes respective to vehicle.
An analgesic assay was used to determine whether a given compound can reduce and/or prevent visceral pain in mice. The assay utilizes Swiss Albino or CD-1 male mice (5-10 mice per group), each mouse being approximately 0.015-0.030 kg on the study day. Mice were treated according to standard protocols.
The animal was given an intraperitoneal (IP) injection of an irritant (acetic acid) that induces “writhing” which may include: contractions of the abdomen, twisting and turning of the trunk, arching of the back and the extension of the hindlimbs. Mice are given a single IP injection (0.1 mL/10 g bodyweight) of a 0.5% acetic acid solution. After the injection the animals were returned to their observation enclosure and their behavior was observed. Contractions were counted between 0 and 20 minutes after the injection. The animals were used once. In certain instances, the test articles were administered at multiple doses to determine a dose response curve.
Table 4 provides the results for certain compounds of the present invention that were administered subcutaneously. Table 5 provides the results for certain compounds of the present invention that were administered orally.

[4] = target: recombinant human mu (MOR) opioid receptor (Homo sapiens (Human), UniProt P35372); assay: Radioligand competition binding assay, mu opioid receptor; conditions: [3H]Naloxone 4 nM, CHO-K1 membranes
Method: The binding affinities of certain compounds of the present invention were evaluated using radioligand binding assays in membranes prepared from CHO-K1 cells expressing recombinant human kappa (KOR) or mu (MOR) opioid receptors.
Competition binding experiments were conducted by incubating membrane protein to equilibrium in triplicate in the presence of a fixed concentration of radioligand and increasing concentrations of test compound for evaluation of binding to KOR or single concentration (10 μM) of test compound for evaluation of binding to MOR in 101 μL final volume. The radioligands used were specific for each receptor type, and the assay conditions are described in Table 1. Following incubations, the membranes were rapidly filtered through GF/B filter plate (presoaked with 0.5% polyethyleneimine), washed five times with cold 50 mM Tris-HCl, pH 7.5, and the bound radioactivity was then measured by liquid scintillation counting. Non-specific binding was measured in the presence of excess ligand; this value was subtracted from the total binding to yield the specific binding at each test concentration.
Ki (affinity of test compound) was obtained using the Cheng Prusoff correction using experimental Kd (affinity of radioligand) values that were previously determined under these assay conditions. For MOR binding, compounds were tested at one concentration, 10 μM, to evaluate its ability to inhibit specific radioligand binding. The values are expressed as percent inhibition of specific binding and greater than 50% inhibition of binding was considered to be significant.
With respect to determining MOR binding, an approach similar to one used for KOR binding was used.

[5] = target: MOR (Homo sapiens (Human), UniProt P35372); assay: cAMP accumulation assay, forskolin-stimulated CHO-K1 cells stably expressing MOR; type: cell-based; conditions: inhibition of cAMP accumulation
Method: as §1
Using a similar approach, inhibition of cAMP accumulation by select compounds was also determined in forskolin-simulated CHO-K1 cells stably expressing MOR (wherein for this assay a density of 8×10^5 cells/mL was used and the positive control was DAMGO). Certain compounds of the present invention were tested as described above.

[6] = test system: Male Swiss Albino mice; assay: Locomotor activity; type: in vivo; conditions: oral, 30 min pre-dose, 20 min observation
Method: The locomotor activity (LMA) model may be conducted to measure changes in activity following test article administration, which may be used to assess the CNS effects of the drug. In brief, at a predetermined time post-dose, rats are placed into observation chambers which are equipped with infrared photocells that can sense motion in the x, y, and z planes. Activity is measured as the number of photobeam breaks in a given plane (horizontal or vertical) or total distance traveled.
Male Swiss Albino mice were treated orally with vehicle (0.5% HPMC+0.1% Tween80), ketazocine, Compound 12 (0.3, 3 and 30 mg/kg) or Compound 20 (0.3, 3 and 30 mg/kg) thirty minutes prior to placement in the locomotor activity chamber. Total distance traveled was measured over the twenty minute observation time following placement in the locomotor activity chamber. Data are normalized relative to percent distance traveled in the vehicle group. The efficacy of Compound 12 (reported as percent distance traveled in comparison to vehicle) was 88.85%, 83.74% and 0.08% at 0.3, 3 and 30 mg/kg dosages, respectively, while the locomotor activity of Compound 20 (reported as percent distance traveled in comparison to vehicle) was 100%, 88% and 0.03% at 0.3, 3 and 30 mg/kg dosages, respectively.

[7] = Mus musculus, sc, 20 min, subcutaneous, read-out: AAW % Efficacy
[8] = inhibition of cAMP accumulation, forskolin 20 μM, read-out: EC50 cAMP (nM)-KOR
[9] = Cheng Prusoff correction, [3H]Diprenorphine 1 nM, CHO-K1 membranes, read-out: Kappa receptor binding Ki
[10] = Mus musculus, po, 20 min, oral, read-out: AAW % Efficacy

Compound	EC50 [1]	inhibition in vivo at 10 mg/kg [3, 7]	EC50 [1, 8]	Ki [2, 9]	Ki [4]	inhibition in vivo at 0.1 mg/kg [3, 10]	inhibition in vivo at 1 mg/kg [3, 10]	inhibition in vivo at 10 mg/kg [3, 10]	EC50 [5]	percent distance traveled in comparison to vehicle ([6]; 0.3 mg/kg)	percent distance traveled in comparison to vehicle ([6]; 3 mg/kg)	percent distance traveled in comparison to vehicle ([6]; 30 mg/kg)	also measured
COCCOCCOCCOc1ccc2c(c1)[C@]1(C)CCN(CC3CC3)[C@H](C2=O)[C@@H]1C [Compound 4, (2S,6R,11R)-3-(Cyclopropylmethyl)-8-{2-[2-(2-methoxyethoxy)ethoxy]ethoxy}-6,11-dimethyl-3,4,5,6-tetrahydro-2,6-methano-3-benzazocin-1(2H)-one]	9.35 nM	39.7%	–	–	–	–	–	–	–	–	–	–	IC50 [2]: 879 nM; Ki [2]: 203 nM; inhibition in vivo at 200 mg/kg ([3]; Mus musculus, po, 20 min, oral, 200 mg/kg, read-out: AAW % Efficacy): 3.8%; inhibition in vivo at 3 mg/kg ([3]; Mus musculus, sc, 20 min, subcutaneous, 3 mg/kg, read-out: AAW % Efficacy): 0%; inhibition in vivo at 30 mg/kg ([3]; Mus musculus, sc, 20 min, subcutaneous, 30 mg/kg, read-out: AAW % Efficacy): 100%
COCCOCCOCCOCCOCCNc1ccc(Nc2ccc3c(c2)[C@]2(C)CCN(CC4CC4)[C@H](C3=O)[C@@H]2C)cc1 [Compound 12, (2S,6R,11R)-8-((4-(2,5,8,11,14-pentaoxahexadecan-16-ylamino)phenyl)amino)-3-(cyclopropylmethyl)-6,11-dimethyl-3,4,5,6-tetrahydro-2,6-methanobenzo[d]azocin-1(2H)-one]	–	–	7 nM	5 nM	58.5 nM	22.5%	56.9%	97.2%	189 nM	88.85%	83.74%	0.08%	AAW % Efficacy ([3]; subcutaneous, 3 mg/kg): 68.6%; AAW percent efficacy, outlier data removed ([3]; subcutaneous, 3 mg/kg, outlier data removed): 65.09; AAW % Efficacy ([3]; subcutaneous, 30 mg/kg): 100.0%
C[C@H]1[C@H]2C(=O)c3ccc(Nc4ccc(NCCOCCOCCOCCOCCOC(F)(F)F)cc4)cc3[C@]1(C)CCN2CC1CC1 [Compound 20, (2S,6R,11R)-3-(cyclopropylmethyl)-6,11-dimethyl-8-((4-((1,1,1-trifluoro-2,5,8,11,14-pentaoxahexadecan-16-yl)amino)phenyl)amino)-3,4,5,6-tetrahydro-2,6-methanobenzo[d]azocin-1(2H)-one]	–	88.1%	6.1 nM	2.86 nM	44.3 nM	–	–	–	128 nM	100%	88%	0.03%	inhibition in vivo at 0.3 mg/kg ([3]; Mus musculus, po, 20 min, oral, 0.3 mg/kg, read-out: AAW % Efficacy): 39.1%; inhibition in vivo at 3 mg/kg ([3]; Mus musculus, po, 20 min, oral, 3 mg/kg, read-out: AAW % Efficacy): 79.5%; inhibition in vivo at 30 mg/kg ([3]; Mus musculus, po, 20 min, oral, 30 mg/kg, read-out: AAW % Efficacy): 100%
C[C@H]1[C@H]2C(=O)c3ccc(NC(C)(C)CO)cc3[C@]1(C)CCN2CC1CC1 [Compound 23, (2S,6R,11R)-3-(Cyclopropylmethyl)-8-((1-hydroxy-2-methylpropan-2-yl)amino)-6,11-dimethyl-3,4,5,6-tetrahydro-2,6-methanobenzo[d]azocin-1(2H)-one]	–	–	395 nM	1050 nM	7960 nM	–	–	–	3290 nM	–	–	–	–
C[C@H]1[C@H]2C(=O)c3ccc(NC(CO)CO)cc3[C@]1(C)CCN2CC1CC1 [Compound 24, (2S,6R,11R)-3-(cyclopropylmethyl)-8-((1,3-dihydroxypropan-2-yl)amino)-6,11-dimethyl-3,4,5,6-tetrahydro-2,6-methanobenzo[d]azocin-1(2H)-one]	–	–	107 nM	494 nM	1810 nM	–	–	–	598 nM	–	–	–	–
C[C@H]1[C@H]2C(=O)c3ccc(O)cc3[C@]1(C)CCN2CC1CC1 [Ketazocine, (2S,6R,11R)-3-(cyclopropylmethyl)-8-hydroxy-6,11-dimethyl-3,4,5,6-tetrahydro-2,6-methanobenzo[d]azocin-1(2H)-one, reference compound]	0.55 nM	–	–	1.3 nM	–	12.8%	34.5%	58.9%	–	–	–	–	IC50 ([2]; [3H]Diprenorphine 1 nM, CHO-K1 membranes, read-out: Kappa receptor binding IC50): 5.6 nM; IC50 [4]: 8.4 nM; inhibition in vivo at 100 mg/kg ([3]; Mus musculus, po, 20 min, oral, 100 mg/kg, read-out: AAW % Efficacy): 100%; inhibition in vivo at 0.01 mg/kg ([3]; Mus musculus, sc, 20 min, subcutaneous, 0.01 mg/kg, read-out: AAW % Efficacy): 10.6%; inhibition in vivo at 0.1 mg/kg [3, 7]: 50%; inhibition in vivo at 1 mg/kg [3, 7]: 100%
